Measurements taken from the supplement of paper PMC10307832.

What was measured:
Experiment in all cases: relative viability (nuclei count vs DMSO), 5 days (fraction); higher = more cells survive
A549 = system: A549
Outline: (§1)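 A single step with final 0.05% Triton X-100, 1% formaldehyde and 1 ug/ml Hoechst fixed the cells and stained nuclei 5 days after treatment. Lung cancer cell lines in 1536-well plates had been treated by pin tool the day after seeding with one drug alone or a fixed anchor-drug dose plus five library-drug doses (not always all listed) in √10 steps, and nuclei were counted on 4× images. Relative viability is the ratio of nuclei in treated wells to nuclei in vehicle wells, taken as the median of duplicate plates.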

HCC-78 = system: HCC-78
Outline: as §1

NCI-H1623 = system: NCI-H1623
Outline: as §1

NCI-H2009 = system: NCI-H2009
Outline: as §1

NCI-H2342 = system: NCI-H2342
Outline: as §1

NCI-H358 = system: NCI-H358
Outline: as §1

NCI-H460 = system: NCI-H460
Outline: as §1

NCI-H522 = system: NCI-H522
Outline: as §1

NCI-H661 = system: NCI-H661
Outline: as §1

Calu-6 = system: Calu-6
Outline: as §1

EBC-1 = system: EBC-1
Outline: as §1

IA-LM = system: IA-LM
Outline: as §1

NCI-H1299 = system: NCI-H1299
Outline: as §1

NCI-H1703 = system: NCI-H1703
Outline: as §1

Which results are given for `Cc1sc2c(c1C)C(c1ccc(Cl)cc1)=N[C@@H](CC(=O)OC(C)(C)C)c1nnc(C)n1-2` [JQ1] + N=C(N)NC(=N)NCCc1ccccc1 [Phenformin] (partner 250 µM)?
relative viability (A549; first compound 0.04 µM): 0.171; relative viability (A549; first compound 0.1265 µM): 0.137; relative viability (A549; first compound 0.4 µM): 0.14; relative viability (A549; first compound 1.265 µM): 0.182; relative viability (A549; first compound 4 µM): 0.21; relative viability (HCC-78; first compound 0.04 µM): 0.727; relative viability (HCC-78; first compound 0.1265 µM): 0.657; relative viability (HCC-78; first compound 0.4 µM): 0.727; relative viability (HCC-78; first compound 1.265 µM): 0.515; relative viability (HCC-78; first compound 4 µM): 0.435; relative viability (NCI-H1623; first compound 0.04 µM): 0.597; relative viability (NCI-H1623; first compound 0.1265 µM): 0.628; relative viability (NCI-H1623; first compound 0.4 µM): 0.547; relative viability (NCI-H1623; first compound 1.265 µM): 0.486; relative viability (NCI-H1623; first compound 4 µM): 0.406; relative viability (NCI-H2009; first compound 0.04 µM): 0.477; relative viability (NCI-H2009; first compound 0.1265 µM): 0.339; relative viability (NCI-H2009; first compound 0.4 µM): 0.291; relative viability (NCI-H2009; first compound 1.265 µM): 0.205; relative viability (NCI-H2009; first compound 4 µM): 0.223; relative viability (NCI-H2342; first compound 0.04 µM): 0.604; relative viability (NCI-H2342; first compound 0.1265 µM): 0.57; relative viability (NCI-H2342; first compound 0.4 µM): 0.694; relative viability (NCI-H2342; first compound 1.265 µM): 0.809; relative viability (NCI-H2342; first compound 4 µM): 0.663; relative viability (NCI-H358; first compound 0.04 µM): 0.355; relative viability (NCI-H358; first compound 0.1265 µM): 0.335; relative viability (NCI-H358; first compound 0.4 µM): 0.361; relative viability (NCI-H358; first compound 1.265 µM): 0.198; relative viability (NCI-H358; first compound 4 µM): 0.161; relative viability (NCI-H460; first compound 0.04 µM): 0.503; relative viability (NCI-H460; first compound 0.1265 µM): 0.271; relative viability (NCI-H460; first compound 0.4 µM): 0.123; relative viability (NCI-H460; first compound 1.265 µM): 0.0422; relative viability (NCI-H460; first compound 4 µM): 0.041; relative viability (NCI-H522; first compound 0.04 µM): 0.656; relative viability (NCI-H522; first compound 0.1265 µM): 0.615; relative viability (NCI-H522; first compound 0.4 µM): 0.55; relative viability (NCI-H522; first compound 1.265 µM): 0.519; relative viability (NCI-H522; first compound 4 µM): 0.323; relative viability (NCI-H661; first compound 0.04 µM): 0.264; relative viability (NCI-H661; first compound 0.1265 µM): 0.315; relative viability (NCI-H661; first compound 0.4 µM): 0.286; relative viability (NCI-H661; first compound 1.265 µM): 0.302; relative viability (NCI-H661; first compound 4 µM): 0.282

How did the relative viability (A549; first compound 0.005 µM) turn out when `Nc1ccn([C@@H]2O[C@H](CO)[C@@H](O)[C@@H]2O)c(=O)n1` [Cytarabine] + COc1cc2c(Oc3ccc(NC(=O)C4(C(=O)Nc5ccc(F)cc5)CC4)cc3F)ccnc2cc1OCCCN1CCOCC1 [Foretinib] (partner 0.25 µM) was run?
The relative viability was 0.622.

And the relative viability (A549; first compound 0.01581 µM)?
The relative viability was 0.629.

And the relative viability (A549; first compound 0.05 µM)?
The relative viability was 0.336.

What about the relative viability (A549; first compound 0.1581 µM) of the same compound?
The relative viability was 0.071.

What about the relative viability (A549; first compound 0.5 µM) of the same compound?
Its relative viability is 0.0358.

What about the relative viability (Calu-6; first compound 0.005 µM) of the same compound?
Its relative viability is 0.796.

What about the relative viability (Calu-6; first compound 0.01581 µM) of the same compound?
Its relative viability is 0.702.

What about the relative viability (Calu-6; first compound 0.05 µM) of the same compound?
Its relative viability is 0.707.

And the relative viability (Calu-6; first compound 0.1581 µM)?
The relative viability was 0.405.

And the relative viability (Calu-6; first compound 0.5 µM)?
The relative viability was 0.233.

What about the relative viability (EBC-1; first compound 0.005 µM) of the same compound?
Its relative viability is 0.0948.

What about the relative viability (EBC-1; first compound 0.01581 µM) of the same compound?
The relative viability was 0.0902.

What about the relative viability (EBC-1; first compound 0.05 µM) of the same compound?
The relative viability was 0.0964.

And the relative viability (EBC-1; first compound 0.1581 µM)?
Its relative viability is 0.0746.

What about the relative viability (EBC-1; first compound 0.5 µM) of the same compound?
Its relative viability is 0.076.

What about the relative viability (HCC-78; first compound 0.005 µM) of the same compound?
Its relative viability is 0.601.

What about the relative viability (HCC-78; first compound 0.01581 µM) of the same compound?
The relative viability was 0.482.

What about the relative viability (HCC-78; first compound 0.05 µM) of the same compound?
Its relative viability is 0.524.

And the relative viability (HCC-78; first compound 0.1581 µM)?
The relative viability was 0.378.

What about the relative viability (HCC-78; first compound 0.5 µM) of the same compound?
The relative viability was 0.372.

And the relative viability (IA-LM; first compound 0.005 µM)?
Its relative viability is 0.802.

And the relative viability (IA-LM; first compound 0.01581 µM)?
Its relative viability is 1.05.

And the relative viability (IA-LM; first compound 0.05 µM)?
Its relative viability is 0.916.

What about the relative viability (IA-LM; first compound 0.1581 µM) of the same compound?
The relative viability was 0.592.

What about the relative viability (IA-LM; first compound 0.5 µM) of the same compound?
Its relative viability is 0.246.

What about the relative viability (NCI-H1299; first compound 0.005 µM) of the same compound?
Its relative viability is 1.15.

What about the relative viability (NCI-H1299; first compound 0.01581 µM) of the same compound?
The relative viability was 1.13.

What about the relative viability (NCI-H1299; first compound 0.05 µM) of the same compound?
Its relative viability is 1.05.

What about the relative viability (NCI-H1299; first compound 0.1581 µM) of the same compound?
Its relative viability is 1.12.

What about the relative viability (NCI-H1299; first compound 0.5 µM) of the same compound?
The relative viability was 1.16.

What about the relative viability (NCI-H1623; first compound 0.005 µM) of the same compound?
The relative viability was 0.695.

What about the relative viability (NCI-H1623; first compound 0.01581 µM) of the same compound?
The relative viability was 0.545.

And the relative viability (NCI-H1623; first compound 0.05 µM)?
Its relative viability is 0.375.

What about the relative viability (NCI-H1623; first compound 0.1581 µM) of the same compound?
The relative viability was 0.463.

What about the relative viability (NCI-H1623; first compound 0.5 µM) of the same compound?
Its relative viability is 0.577.

And the relative viability (NCI-H1703; first compound 0.005 µM)?
Its relative viability is 0.251.

What about the relative viability (NCI-H1703; first compound 0.01581 µM) of the same compound?
Its relative viability is 0.273.

What about the relative viability (NCI-H1703; first compound 0.05 µM) of the same compound?
The relative viability was 0.253.

And the relative viability (NCI-H1703; first compound 0.1581 µM)?
Its relative viability is 0.195.

And the relative viability (NCI-H1703; first compound 0.5 µM)?
The relative viability was 0.158.

And the relative viability (NCI-H2009; first compound 0.005 µM)?
Its relative viability is 1.23.

And the relative viability (NCI-H2009; first compound 0.01581 µM)?
The relative viability was 1.22.

And the relative viability (NCI-H2009; first compound 0.05 µM)?
The relative viability was 1.19.

And the relative viability (NCI-H2009; first compound 0.1581 µM)?
Its relative viability is 0.981.

What about the relative viability (NCI-H2009; first compound 0.5 µM) of the same compound?
The relative viability was 0.503.

And the relative viability (NCI-H2342; first compound 0.005 µM)?
Its relative viability is 0.983.

What about the relative viability (NCI-H2342; first compound 0.01581 µM) of the same compound?
The relative viability was 0.887.

What about the relative viability (NCI-H2342; first compound 0.05 µM) of the same compound?
The relative viability was 0.798.

What about the relative viability (NCI-H2342; first compound 0.1581 µM) of the same compound?
The relative viability was 0.784.

And the relative viability (NCI-H2342; first compound 0.5 µM)?
The relative viability was 0.676.

What about the relative viability (NCI-H358; first compound 0.005 µM) of the same compound?
The relative viability was 0.612.

And the relative viability (NCI-H358; first compound 0.01581 µM)?
Its relative viability is 0.603.

What about the relative viability (NCI-H358; first compound 0.05 µM) of the same compound?
Its relative viability is 0.3.

And the relative viability (NCI-H358; first compound 0.1581 µM)?
The relative viability was 0.131.

What about the relative viability (NCI-H358; first compound 0.5 µM) of the same compound?
Its relative viability is 0.126.

What about the relative viability (NCI-H460; first compound 0.005 µM) of the same compound?
The relative viability was 1.05.

What about the relative viability (NCI-H460; first compound 0.01581 µM) of the same compound?
Its relative viability is 0.837.

What about the relative viability (NCI-H460; first compound 0.05 µM) of the same compound?
The relative viability was 0.492.

And the relative viability (NCI-H460; first compound 0.1581 µM)?
The relative viability was 0.0445.

What about the relative viability (NCI-H460; first compound 0.5 µM) of the same compound?
The relative viability was 0.0401.

And the relative viability (NCI-H661; first compound 0.005 µM)?
The relative viability was 0.93.

And the relative viability (NCI-H661; first compound 0.01581 µM)?
The relative viability was 0.942.

What about the relative viability (NCI-H661; first compound 0.05 µM) of the same compound?
The relative viability was 0.884.

And the relative viability (NCI-H661; first compound 0.1581 µM)?
Its relative viability is 0.68.

What about the relative viability (NCI-H661; first compound 0.5 µM) of the same compound?
Its relative viability is 0.519.
